Columns and labels:
[1] = target: T1, Aβ1-42 (Homo sapiens, UniProt P05067); test: Inhibition of the precipitation of Aβ1-42 by the addition of ligand (Micro BCA assay of soluble/aggregated peptide); type: biochemical; settings: Aβ1-42 5 μM, pH 7.4; for CuCl2 % soluble Aβ: 20 μM CuCl2, 1 h 37° C. then 1 h with 200 μM ligand; for FeCl3 % soluble Aβ: 20 μM FeCl3, 1 h 37° C. then 1 h with 200 μM ligand; for ZnCl2 % soluble Aβ: 20 μM ZnCl2, 1 h 37° C. then 1 h with 200 μM ligand; for without metal % soluble Aβ: no metal salt, 1 h 37° C. then 1 h with 200 μM ligand
T1 construct: The β-amyloid peptide Aβ1-42 (Aβ1-42) was synthesised, purified (to a purity greater than 95%); made in house; host or cells: chemical peptide synthesis (no expression host)
Protocol: After a further hour of incubation, the reaction mixture is centrifuged.
Before use, the water [of Milli-Q Millipore quality] and all buffer solutions were treated on Chelex-100 resin (Biorad) (5 mg/ml) and filtered through 0.2 μm filters (Whatman) to remove potential traces of metal ions or particles.
Working solutions of the peptide were prepared by solubilising 1 mg of lyophilised peptide in 500 μl of water and 500 μl of an aqueous NaOH solution pH=12.0, while stirring in a Thermomixer Comfort (Eppendorf). The peptide preparations are subsequently centrifuged for 10 minutes at 9,000 rpm and the supernatant is used as an “Aβ stock” solution. The concentration of peptide in the “Aβ stock” is determined immediately by colorimetric assay using a Micro BCA Protein Assays kit (Pierce) from standard ranges produced using known amounts of bovine serum albumin (BSA) then the Aβ1-42 peptide solution is aliquoted and frozen rapidly in liquid nitrogen prior to being stored at −20° C. until being used.
Salts are generated by adding one hydrochloric acid equivalent per nitrogen group equivalent of the ligand dissolved in DMSO. After evaporation of the solvent, these salts are dissolved at the desired concentration with DMSO and kept at −20° C. until they are used.
The protocol was established from works by: C. S. Atwood et al., J. Neurochem. […] The final concentrations are given. 500 μl of Aβ1-42 (5 μM is set to aggregate in 20 mM Tris-HCl buffer containing 150 mM NaCl (pH=7.4) for 1 hour at 37° C. while stirring at 1,400 rpm in the absence or presence of metal ions: CuCl2, ZnCl2 or FeCl3 (20 μM). Then 50 pi of ligand to be tested (200 μM) dissolved in DMSO are added and the samples are incubated for 1 further hour at 37° C. while stirring at 1,400 rpm. The samples without ligand also receive 50 μl of DMSO. The samples (final volume=550 μ) are subsequently centrifuged for 20 min at 9,000 rpm, and 500 μl of supernatant are removed. The tube containing the precipitation pellet then receives 450 μl of assay buffer/DMSO mixture (91/9, v/v). […] Quantification is carried out on the basis of standard BSA ranges. The amounts of Aβ1-42 actually contained in the pellet and the supernatant are obtained after a correction due to the presence of a residual portion of supernatant in the pellet-containing fraction.
For the control experiments with derivatives comprising a single quinoline residue, […] of ligand were added because complexes of type L2Cu are conventionally used in these cases.

[2] = Determination of log D7.4 (1-octanol / Tris-HCl buffer); type: physicochemical; settings: 1-octanol / 20 mM Tris-HCl buffer containing 150 mM NaCl (pH = 7.4) (1/1, v/v)
Protocol: The ligand (2.0 mg) is dissolved in 2 ml of 1-octanol then 2 ml of 20 mM Tris-HCl buffer, pH=7.4 containing 150 mM NaCl are added. After mixing in a vortex for 3 min at ambient temperature, followed by centrifugation for 5 min at 9,000 rpm, the concentration of the ligand in each phase is determined by UV-visible spectrophotometry. The 1-octanol fractions are thus redivided until reproducible values of coefficient of division of obtained. This coefficient is expressed as the decimal logarithm of [(the concentration of ligand contained in the 1-octanol phase)/(the concentration of ligand contained in the buffered aqueous phase)]=log D7.4. Measurements were taken three times.

[3] = Hydrogen peroxide produced by Aβ1-42 in the presence of CuCl2, ascorbate, air and ligand (Amplex Red H2O2/HRP); type: biochemical; settings: CuCl2 0.4 μM, ascorbate 10 μM, air
Protocol: (§1) FIG. 11: Variation in H2O2 production by copper complexes of Aβ1-42 peptide as a function of the Cu(II)/Aβ stoichiometry. Experiments are carried out for 5 minutes in a sodium phosphate buffer (pH=7.4) in the presence 0.4 μM CuCl2, 10 μM ascorbate and air with or without 0.4 μM of 3 or 7. The H2O2 released is quantified by means of an Amplex-Red H2O2/HRP Assay kit.
(§2) The final concentrations are given. The reactions were carried out in the dark in mM sodium phosphate buffer (pH=7.4). Aβ1-42 (0.2 μM) and CuCl2 (0.4 μM) were pre-incubated for 1 hour at 37° C. while stirring at 1,400 rpm in 375 μl of buffer. Then 2 μl of a solution of ligand to be investigated (0.2; 0.4 or 0.8 μM) in DMSO were added. After incubation for a further hour, 2 μl of an aqueous sodium ascorbate solution (10 μM) were added and incubation was continued for 5 min while stirring. The amount of H2O2 produced is then quantified using an Amplex Red H2O2/HRP Assay Kit (Molecular Probes) while adding a volume of assay reagent to the samples, then incubating them for 1 hour at 37° C. while stirring at 500 rpm. […] Quantification is carried out on the basis of standard curves obtained with known amounts of H2O2.
(§3) The figures in the tables correspond to the amount of H2O2 (expressed in nanomoles) added using an Amplex Red H2O2/HRP Assay kit.

[4] = target: T2, copper complexes of Aβ1-42 peptide (Homo sapiens, UniProt P05067); test: as above; type: biochemical; settings: CuCl2 0.4 μM, ascorbate 10 μM, air
T2 construct: The β-amyloid peptide Aβ1-42 (Aβ1-42) was synthesised, purified (to a purity greater than 95%); made in house; host or cells: chemical peptide synthesis (no expression host)
Protocol: as §1, §2, §3

[5] = system: copper complexes of Aβ1-42 peptide; test: Stability of H2O2 during the H2O2 production inhibition experiments (known amount of H2O2 added); type: biochemical; settings: for H2O2 assayed: no Aβ1-42, Cu(II) 0.4 μM, ascorbate 10 μM, ligand 0.4 μM
Protocol: The final concentrations are given. The reactions were carried out in the dark in mM sodium phosphate buffer (pH=7.4). Aβ1-42 (0.2 μM) and CuCl2 (0.4 μM) were pre-incubated for 1 hour at 37° C. while stirring at 1,400 rpm in 375 μl of buffer. Then 2 μl of a solution of ligand to be investigated (0.2; 0.4 or 0.8 μM) in DMSO were added. After incubation for a further hour, 2 μl of an aqueous sodium ascorbate solution (10 μM) were added and incubation was continued for 5 min while stirring. The amount of H2O2 produced is then quantified using an Amplex Red H2O2/HRP Assay Kit (Molecular Probes) while adding a volume of assay reagent to the samples, then incubating them for 1 hour at 37° C. while stirring at 500 rpm. H2O2 is then detected by spectrophotometry at 563 nm. Quantification is carried out on the basis of standard curves obtained with known amounts of H2O2.
Experiments were also carried out in the presence of a known amount of H2O2, added just before or just after the addition of sodium ascorbate, in order to investigate the stability of H2O2 under the experimental conditions employed.

T2 sequence (P05067 672-713 limits assumed, one chain of several): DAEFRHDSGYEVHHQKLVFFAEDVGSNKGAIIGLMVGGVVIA
T1 sequence (P05067 672-713): as the sequence (P05067 672-713 limits assumed, one chain of several) above

Compound: Nc1cccc2cccnc12 [8-aminoquinoline, reference compound]
- CuCl2 % soluble Aβ [1]: 40%
- FeCl3 % soluble Aβ [1]: 58%
- ZnCl2 % soluble Aβ [1]: 67%
- without metal % soluble Aβ [1]: 66 ± 3%
- logD at 3 min [2]: 1.9 ± 0.1

Compound: Cc1ccc2cccc(O)c2n1 [8-hydroxyquinaldine, reference compound]
- CuCl2 % soluble Aβ [1]: 52%
- FeCl3 % soluble Aβ [1]: 51%
- ZnCl2 % soluble Aβ [1]: 62%
- without metal % soluble Aβ [1]: 69%
- logD at 3 min [2]: 2.4 ± 0.1

Compound: Oc1cccc2cccnc12 [8-hydroxyquinoline, reference compound]
- CuCl2 % soluble Aβ [1]: 70 ± 3%
- FeCl3 % soluble Aβ [1]: 80%
- ZnCl2 % soluble Aβ [1]: 88%
- without metal % soluble Aβ [1]: 85%
- amount of H2O2, without Aβ1-42 ([3]; ligand 1 eq/Cu(II) (0.4 μM)): 2.02 nmol
- amount of H2O2, without Aβ1-42 ([3]; ligand 2 eq/Cu(II)): 0.62 nmol
- amount of H2O2, 0.2 μM Aβ1-42 Cu/Aβ = 2 ([4]; ligand 1 eq/Cu(II) (0.4 μM)): 0.69 nmol
- amount of H2O2, 0.5 μM Aβ1-42 Cu/Aβ = 0.75 ([4]; ligand 1 eq/Cu(II) (0.4 μM)): 0.75 nmol
- amount of H2O2, 0.2 μM Aβ1-42 Cu/Aβ = 2 ([4]; ligand 2 eq/Cu(II)): 0.71 ± 0.05 nmol
- amount of H2O2, 0.5 μM Aβ1-42 Cu/Aβ = 0.75 ([4]; ligand 2 eq/Cu(II)): 0.62 nmol
- logD at 3 min [2]: 2.1 ± 0.1

Compound: Oc1cccc2ccc(Cc3ccc4cccc(O)c4n3)nc12 [Compound 1, 2,2′-methanediyl-bis(8-hydroxyquinoline)]
- CuCl2 % soluble Aβ [1]: 60 ± 5%
- FeCl3 % soluble Aβ [1]: 61%
- ZnCl2 % soluble Aβ [1]: 63%
- without metal % soluble Aβ [1]: 63 ± 4%
- amount of H2O2, without Aβ1-42 ([3]; ligand 1 eq/Cu(II) (0.4 μM)): 0.54 nmol
- amount of H2O2, 0.2 μM Aβ1-42 Cu/Aβ = 2 ([4]; ligand 1 eq/Cu(II) (0.4 μM)): 0.75 ± 0.11 nmol
- amount of H2O2, 0.5 μM Aβ1-42 Cu/Aβ = 0.75 ([4]; ligand 1 eq/Cu(II) (0.4 μM)): 0.76 nmol
- logD at 3 min [2]: 3.3 ± 0.1

Compound: Oc1ccc(Cl)c2ccc(Cc3ccc4c(Cl)ccc(O)c4n3)nc12 [Compound 2, 2,2′-methanediyl-bis(5-chloro-8-hydroxyquinoline)]
- CuCl2 % soluble Aβ [1]: 45 ± 5%
- FeCl3 % soluble Aβ [1]: 58%
- ZnCl2 % soluble Aβ [1]: 57%
- without metal % soluble Aβ [1]: 66%
- amount of H2O2, without Aβ1-42 ([3]; ligand 1 eq/Cu(II) (0.4 μM)): 0.56 nmol
- amount of H2O2, 0.2 μM Aβ1-42 Cu/Aβ = 2 ([4]; ligand 1 eq/Cu(II) (0.4 μM)): 0.80 ± 0.23 nmol
- amount of H2O2, 0.5 μM Aβ1-42 Cu/Aβ = 0.75 ([4]; ligand 1 eq/Cu(II) (0.4 μM)): 0.61 nmol
- logD at 3 min [2]: 3.5 ± 0.1

Compound: Oc1cccc2ccc(CC(Cc3ccc4cccc(O)c4n3)c3ccc4cccc(O)c4n3)nc12 [Compound 11, 2,2′,2″-(1,2,3-Propanetriyl)-tris(8-hydroxyquinoline)]
- CuCl2 % soluble Aβ [1]: 48%
- FeCl3 % soluble Aβ [1]: 43%
- ZnCl2 % soluble Aβ [1]: 45%
- without metal % soluble Aβ [1]: 48%
- logD at 3 min [2]: 3.7 ± 0.1

Compound: c1cnc2c(Oc3cccc4cccnc34)cccc2c1 [Compound 15, 8,8′-Oxydiquinoline]
- CuCl2 % soluble Aβ [1]: 35%
- FeCl3 % soluble Aβ [1]: 42%
- ZnCl2 % soluble Aβ [1]: 23%
- without metal % soluble Aβ [1]: 72%
- amount of H2O2, 0.2 μM Aβ1-42 Cu/Aβ = 2 ([4]; ligand 1 eq/Cu(II) (0.4 μM)): 1.02 nmol
- logD at 3 min [2]: 2 ± 0.1

Compound: COc1ccc2ccc(Cc3ccc4ccc(OC)c(O)c4n3)nc2c1O.Cl.Cl [Compound 16, 2,2′-(methanediyl)-bis(7-methyloxy-8-hydroxy-2-quinolinium) dichloride]
- CuCl2 % soluble Aβ [1]: 48 ± 3%
- FeCl3 % soluble Aβ [1]: 44 ± 6%
- ZnCl2 % soluble Aβ [1]: 50%
- without metal % soluble Aβ [1]: 53%
- amount of H2O2, 0.2 μM Aβ1-42 Cu/Aβ = 2 ([4]; ligand 1 eq/Cu(II) (0.4 μM)): 0.70 nmol

Compound: O=C(Nc1ccc2cccc(O)c2n1)c1ccc2cccc(O)c2n1 [Compound 18, 8-hydroxy-N-(8-hydroxy-2-quinolinyl)-2-quinolinecarboxamide]
- CuCl2 % soluble Aβ [1]: 46 ± 3%
- FeCl3 % soluble Aβ [1]: 49%
- ZnCl2 % soluble Aβ [1]: 62 ± 5%
- without metal % soluble Aβ [1]: 66%
- amount of H2O2, without Aβ1-42 ([3]; ligand 1 eq/Cu(II) (0.4 μM)): 0.47 nmol
- amount of H2O2, 0.2 μM Aβ1-42 Cu/Aβ = 2 ([4]; ligand 1 eq/Cu(II) (0.4 μM)): 0.47 nmol
- amount of H2O2, 0.5 μM Aβ1-42 Cu/Aβ = 0.75 ([4]; ligand 1 eq/Cu(II) (0.4 μM)): 0.45 nmol
- H2O2 assayed ([5]; 3.0 nanomoles H2O2 added just before the ascorbate): 3.5 (3.5) nanomoles
- H2O2 assayed ([5]; no H2O2 added): 0.47 nmol
- theoretical value of H2O2 if there is no degradation (in parentheses) ([5]; no Aβ1-42, Cu(II), ascorbate, ligand, 3.0 nanomoles H2O2 added just before the ascorbate): 3.5 (3.5) nanomoles
- logD at 3 min [2]: 3 ± 0.1

Compound: O=C(Nc1cccc2cccnc12)c1cccc2cccnc12 [Compound 24, N-8-quinolinyl-8-quinoline carboxamide]
- CuCl2 % soluble Aβ [1]: 21%
- FeCl3 % soluble Aβ [1]: 38%
- ZnCl2 % soluble Aβ [1]: 21%
- without metal % soluble Aβ [1]: 64%
- amount of H2O2, without Aβ1-42 ([3]; ligand 1 eq/Cu(II) (0.4 μM)): 0.49 nmol
- amount of H2O2, 0.2 μM Aβ1-42 Cu/Aβ = 2 ([4]; ligand 1 eq/Cu(II) (0.4 μM)): 0.62 nmol
- amount of H2O2, 0.5 μM Aβ1-42 Cu/Aβ = 0.75 ([4]; ligand 1 eq/Cu(II) (0.4 μM)): 0.47 nmol
- logD at 3 min [2]: 2.6 ± 0.1

Reference: patent US20120277265A1, “NOVEL POLYQUINOLINE DERIVATIVES AND THE THERAPEUTIC USE THEREOF” (CENTRE NATIONAL DE LA RECHERCHE SCIENTIFIQUE (C.N.R.S.), priority 2005, published 2012)
